Assay [1] addresses Poly [ADP-ribose] polymerase 1 (Homo sapiens, UniProt P09874). Nature of the assay: Inhibition of PARP1.
Another assay relates to HeLa. Nature of the assay: Ratio of GI50 for methyl methane sulphonate to drug in human HeLa B cells. The format is functional.

SMILES strings stand for the structures.

Sequence of Poly [ADP-ribose] polymerase 1 (P09874 whole entry): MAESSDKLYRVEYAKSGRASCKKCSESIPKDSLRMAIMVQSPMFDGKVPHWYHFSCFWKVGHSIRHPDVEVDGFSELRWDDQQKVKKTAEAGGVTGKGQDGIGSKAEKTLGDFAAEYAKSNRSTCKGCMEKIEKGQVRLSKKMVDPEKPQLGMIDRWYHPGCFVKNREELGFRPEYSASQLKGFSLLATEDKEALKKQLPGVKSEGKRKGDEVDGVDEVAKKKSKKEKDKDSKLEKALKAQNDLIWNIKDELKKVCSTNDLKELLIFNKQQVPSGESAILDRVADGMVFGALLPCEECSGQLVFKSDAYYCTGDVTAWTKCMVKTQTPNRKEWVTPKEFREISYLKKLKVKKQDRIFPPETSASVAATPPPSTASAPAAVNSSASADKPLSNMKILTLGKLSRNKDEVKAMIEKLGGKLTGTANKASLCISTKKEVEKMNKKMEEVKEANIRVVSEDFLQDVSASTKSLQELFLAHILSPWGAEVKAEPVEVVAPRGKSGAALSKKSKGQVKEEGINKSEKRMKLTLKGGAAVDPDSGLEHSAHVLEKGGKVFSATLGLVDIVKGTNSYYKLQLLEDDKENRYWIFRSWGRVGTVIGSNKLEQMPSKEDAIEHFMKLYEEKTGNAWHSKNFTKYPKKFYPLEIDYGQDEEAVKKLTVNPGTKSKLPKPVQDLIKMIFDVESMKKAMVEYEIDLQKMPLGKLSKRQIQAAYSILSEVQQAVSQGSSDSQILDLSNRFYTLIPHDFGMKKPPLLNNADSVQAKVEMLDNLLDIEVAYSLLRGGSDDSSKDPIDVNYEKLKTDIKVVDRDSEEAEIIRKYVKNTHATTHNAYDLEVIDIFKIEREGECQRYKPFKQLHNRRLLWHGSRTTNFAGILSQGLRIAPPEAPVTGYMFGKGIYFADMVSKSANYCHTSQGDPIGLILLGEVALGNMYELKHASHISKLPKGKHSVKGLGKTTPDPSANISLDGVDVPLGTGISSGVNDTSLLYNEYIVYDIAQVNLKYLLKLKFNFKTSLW

In general, IC50 refers to the point on the concentration scale where inhibition reaches its midpoint. Read a high IC50 as a need for much substance. For the molecule `CC(Oc1ccccc1)C(=O)N1CCN(C(=O)c2cc(COc3ccccc3C(N)=O)ccc2F)CC1` (stereo unspecified), the IC50 in assay [1] was determined as 50 nM. For the same molecule, the PF50 with HeLa is 3.7.
The like results for `NC(=O)c1cc(F)c(F)cc1OCc1ccc(F)c(C(=O)N2CCNCC2)c1` were, in that order, 240 nM and 1.08.
Taken in the same sequence, the figures for `O=C(c1cccc(Cc2n[nH]c(=O)c3ccccc23)c1)N1CCNCC1` were 2 nM and 2.7.
For `CC(Oc1ccccc1)C(=O)N1CCN(C(=O)c2cc(CCOc3ccccc3C(N)=O)ccc2F)CC1` (stereo unspecified), the PF50 with HeLa amounted to 1.5.
`NC(=O)c1ccccc1OCCc1cccc(C(=O)N2CCNCC2)c1`: the midpoint of inhibition in assay [1], the IC50, lay at 970 nM. For the same molecule, in the assay with HeLa, the PF50 is on record as 1.06.
The like results for `CC(Oc1ccccc1)C(=O)N1CCN(C(=O)c2cc(COc3ccc(F)cc3C(N)=O)ccc2F)CC1` (stereo unspecified) were, in that order, 14 nM and 1.12.
For the molecule `NC(=O)c1cc(F)ccc1OCc1ccc(F)c(C(=O)N2CCN(C(=O)C3CCCC3)CC2)c1`, the PF50 in the assay on HeLa is on record as 1.5.
Take `NC(=O)c1c(F)ccc(F)c1OCc1ccc(F)c(C(=O)N2CCNCC2)c1`: the half-maximal inhibitory concentration (IC50) in assay [1] was above 10000 nM.
Take `O=C(c1cccc(Cc2n[nH]c(=O)c3ccccc23)c1)N1CCN(C(=O)C2CCCC2)CC1`: the IC50 in assay [1] came to 8 nM. The PF50 in the assay on HeLa is 4.8.
The like results for `NC(=O)c1ccccc1OCc1ccc(F)c(C(=O)N2CCNCC2)c1` were, in that order, 61 nM and 1.4.
As to `CC(Oc1ccccc1)C(=O)N1CCN(C(=O)c2cccc(Cc3n[nH]c(=O)c4ccccc34)c2)CC1` (stereo unspecified), the half-maximal inhibitory concentration (IC50) in assay [1] was found to be 5 nM. For the same molecule, the PF50 with HeLa is 29.7.
Taken in the same sequence, the figures for `NC(=O)c1ccccc1OCc1cccc(C(=O)N2CCN(C(=O)C3CCCC3)CC2)c1` were 188 nM and 1.1.
Taken in the same sequence, the figures for `CC(Oc1ccccc1)C(=O)N1CCN(C(=O)c2cccc(COc3ccccc3C(N)=O)c2)CC1` (stereo unspecified) were 36 nM and 2.
For `CC(Oc1ccccc1)C(=O)N1CCN(C(=O)c2cccc(CCOc3ccccc3C(N)=O)c2)CC1` (stereo unspecified), it took 200 nM to reach half-maximal inhibition in assay [1] (IC50). That is a sub-micromolar value.
`NC(=O)c1ccccc1OCc1ccc(F)c(C(=O)N2CCN(C(=O)C3CCCC3)CC2)c1` showed an IC50 in assay [1] of 24 nM. Moreover, the PF50 with HeLa amounted to 1.96.
In turn, `NC(=O)c1cc(F)ccc1OCc1ccc(F)c(C(=O)N2CCNCC2)c1` came in with an IC50 in assay [1] of 29 nM. In the assay on HeLa, the PF50 is 1.6.
Taken in the same sequence, the figures for `NC(=O)c1ccc(F)cc1OCc1ccc(F)c(C(=O)N2CCNCC2)c1` were 250 nM and 1.2.
The like results for `NC(=O)c1cc(F)cc(F)c1OCc1ccc(F)c(C(=O)N2CCNCC2)c1` were, in that order, 1500 nM and 0.9.
Turning to `NC(=O)c1ccccc1OCCc1cccc(C(=O)N2CCN(C(=O)C3CCCC3)CC2)c1`, the IC50 in assay [1] was 200 nM.
In assay [1], `NC(=O)c1ccccc1OCCc1ccc(F)c(C(=O)N2CCNCC2)c1` showed an IC50 above 10000 nM.
Turning to `NC(=O)c1ccccc1OCc1cccc(C(=O)N2CCNCC2)c1`, the IC50 in assay [1] was determined as 18 nM. Moreover, in the assay on HeLa, the PF50 was determined as 1.3.

The values are drawn from ChEMBL document CHEMBL1155090, “Novel alkoxybenzamide inhibitors of poly(ADP-ribose) polymerase” (Bioorg Med Chem Lett, 2008).
